target: substance P receptor (Homo sapiens, UniProt P25103); assay: Radioligand receptor binding inhibitory assay using receptor from human lymphoblast cells (IM-9), 125I-BHSP; conditions: IM-9 receptor, 25° C., 30 minutes
Experimental: The method of A. Margaret et al. [Molecular Pharmacology 42, 458 (1992)] was modified and used. The receptor was prepared from human lymphoblast cells (IM-9). IM-9 cells were grown in 175 cm^2 tissue culture flasks (100 ml×10) at a density approximately 2×10^5 /ml of RPMI 1640 with L-glutamine, 10% (V/V) heat inactivated fetal calf serum, penicillin (100 u/ml), and streptomycin (100 μg/ml) at 37° C. in 5% CO2 /95% air for 3 days. IM-9 cells were obtained by centrifugation at 500×g for 5 minutes at 5° C. The pellet obtained was washed once with phosphate buffer (Flow Laboratories, CAT No. 28-103-05), homogenized using Polytron homogenizer (Kinematika, Germany) in 30 ml of 50 mM Tris-HCl buffer containing 120 mM NaCl, 5 mM KCl, 2 μg/ml phenylmethyl sulfonyl fluoride, and 1 mM ethylenediamine tetra-acetic acid and then centrifuged at 40,000×g for 20 minutes. The residue was washed twice with 30 ml of buffer described above, and preserved frozen (-80° C.).
The above specimen was suspended in a reaction buffer (50 mM Tris-HCl buffer (pH 7.4), 0.02% bovine serum albumin, 1 mM phenylmethylsulfonyl fluoride, 2 μg/ml chymostatin, 40 μg/ml bacitracin, 3 mM manganese chloride) at a protein concentration of 1.5 mg/ml and a 100 μl portion of the suspension was used in the reaction. After addition of the sample and 125I-BHSP (0.46 KBq), the reaction was conducted in 0.2 ml of reaction buffer at 25° C. for 30 minutes. The amount of nonspecific binding was determined by adding substance P at a final concentration of 2×10^-6 M. After the reaction, using a cell harvester (290PHD, Cambridge Technology, Inc., England), rapid filtration was carried out through a glass filter (GF/B, Whatman, U.S.A.) to stop the reaction. After washing three times with 250 μl of 50 mM Tris-HCl buffer (pH 7.4) containing 0.02% bovine serum albumin, the radioactivity remaining on the filter was measured with a gamma counter. Before use, the filter was immersed in 0.1% polyethyleneimine for 24 hours and air-dried.

substance P receptor, sequence (P25103 whole entry): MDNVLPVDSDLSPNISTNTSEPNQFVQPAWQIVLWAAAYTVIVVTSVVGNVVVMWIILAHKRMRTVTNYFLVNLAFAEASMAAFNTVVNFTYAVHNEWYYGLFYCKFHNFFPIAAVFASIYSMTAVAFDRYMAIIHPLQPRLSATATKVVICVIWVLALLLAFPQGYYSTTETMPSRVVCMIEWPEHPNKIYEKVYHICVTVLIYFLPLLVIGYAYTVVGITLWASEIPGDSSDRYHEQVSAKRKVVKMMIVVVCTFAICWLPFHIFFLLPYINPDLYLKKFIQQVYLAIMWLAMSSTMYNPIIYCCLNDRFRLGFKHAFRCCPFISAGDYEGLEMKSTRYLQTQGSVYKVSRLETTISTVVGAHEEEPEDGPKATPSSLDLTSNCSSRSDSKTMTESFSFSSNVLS

Row | Compound | IC50
1 | Cc1cc2c(-c3ccccc3)c(C(=O)NCc3cc(C(F)(F)F)cc(C(F)(F)F)c3)n(CC(N)=O)c(=O)c2cc1C [Example 225, N-[3,5-Bis(trifluoromethyl)benzyl]-2-carbamoylmethyl-1,2-dihydro-6,7-dimethyl-1-oxo-4-phenyl-3-isoquinolinecarboxamide] | 94 nM
2 | Cc1ccccc1-c1c(C(=O)N(C)Cc2ccccc2Cl)n(C)c(=O)c2ccccc12 [Example 105, N-(2-Chlorobenzyl)-1,2-dihydro-N,2-dimethyl-4-(2-methylphenyl)-1-oxo-3-isoquinolinecarboxsmide] | 19 nM
3 | CN(Cc1cc(C(F)(F)F)cc(C(F)(F)F)c1)C(=O)c1c(-c2ccc(F)cc2)c2c(F)cccc2c(=O)n1C [Example 188, N-[3,5-Bis(trifluoromethyl)benzyl]-5-fluoro-4-(4-fluorophenyl)-N,2-dimethyl-1-oxo-3-isoquinolinecarboxamide] | 1.2 nM
4 | CN(Cc1cc(C(F)(F)F)cc(C(F)(F)F)c1)C(=O)c1oc(=O)c2ccc(Cl)cc2c1-c1ccccc1 [Example 242, N-[3,5-Bis(trifluoromethyl)benzyl]-6-chloro-N-methyl-1-oxo-4-phenyl-1H-2-benzopyran-3-carboxamide] | 8.6 nM
5 | Cc1ccccc1-c1c(COCc2cc(C(F)(F)F)cc(C(F)(F)F)c2)n(C)c(=O)c2ccccc12 [Example 212, 3,5-Bis(trifluoromethyl)benzyl 1,2-dihydro-2-methyl-4-(2-methylphenyl)-1-oxo-3-isoquinoline methyl ether] | 30 nM
6 | Cc1cc(F)ccc1-c1c(C(=O)NCc2cc(C(F)(F)F)cc(C(F)(F)F)c2)n(C)c(=O)c2ccccc12 [Example 175, N-[3,5-Bis(trifluoromethyl)benzyl]-4-(4-fluoro-2-methylphenyl)-1,2-dihydro-2-methyl-1-oxo-3-isoquinolinecarboxamide] | 6.2 nM
7 | COc1cccc(CNC(=O)c2c(-c3ccccc3)c3cc(C)c(C)cc3c(=O)n2C)c1 [Example 128, 1,2-Dihydro-N-(3-methoxybenzyl)-2,6,7-trimethyl-1-oxo-4-phenyl-3-isoquinolinecarboxamide] | 88 nM
8 | CCOC(=O)CCn1c(C(=O)NCc2cc(C(F)(F)F)cc(C(F)(F)F)c2)c(-c2ccccc2)c2ccccc2c1=O [Example 179, N-[3,5-Bis(trifluoromethyl)benzyl]-2-(2-ethoxycarbonylethyl)-1,2-dihydro-1-oxo-4-phenyl-3-isoquinolinecarboxamide] | 80 nM
9 | Cc1ccc2c(c1)c(-c1ccccc1Cl)c(C(=O)N(C)Cc1cc(C(F)(F)F)cc(C(F)(F)F)c1)c(=O)n2C [Example 263, N-[3,5-Bis(trifluoromethyl)benzyl]-4-(2-chlorophenyl)-1,2-dihydro-N,1,6-trimethyl-2-oxo-3-quinolinecarboxamide] | 46 nM
10 | Cc1cc2c(-c3ccccc3)c(CC(=O)N(C)Cc3ccccc3Cl)n(C)c(=O)c2cc1C [Example 221, N-(2-Chlorobenzyl)-1,2-dihydro-N,2,6,7-tetramethyl-1-oxo-4-phenyl-3-isoquinolineacetamide] | 130 nM
11 | CN(Cc1cc(C(F)(F)F)cc(C(F)(F)F)c1)C(=O)c1ncc2ccccc2c1-c1ccc(F)cc1 [Example 274, N-[3,5-Bis(trifluoromethyl)benzyl]-4-(4-fluorophenyl)-N-methyl-3-isoquinolinecarboxamide] | 2.3 nM
12 | Cc1nc2ccccc2c(-c2ccccc2)c1C(=O)N(C)Cc1cc(C(F)(F)F)cc(C(F)(F)F)c1 [Example 267, N-[3,5-Bis(trifluoromethyl)benzyl]-N,2-dimethyl-4-phenyl-3-quinolinecarboxamide] | 0.68 nM
13 | CN(Cc1cc(C(F)(F)F)cc(C(F)(F)F)c1)C(=O)c1c(-c2ccccc2)c2cc(Cl)ccc2oc1=O [Example 249, N-[3,5-Bis(trifluoromethyl)benzyl]-6-chloro-N-methyl-2-oxo-4-phenyl-2H-1-benzopyran-3-carboxamide] | 17 nM
14 | Cn1c(C(=O)NCc2cc(C(F)(F)F)cc(C(F)(F)F)c2)c(-c2ccc(F)cc2)c2ccccc2c1=O [Example 165, N-[3,5-Bis(trifluoromethyl)benzyl]-4-(4-fluorophenyl)-1,2-dihydro-2-methyl-1-oxo-3-isoquinolinecarboxamide] | 24 nM
15 | Cc1ccccc1-c1c(C(=O)N(C)Cc2cc(C(F)(F)F)cc(C(F)(F)F)c2)c(=O)oc2ccc(Cl)cc12 [Example 248] | 16 nM
16 | Cc1cc(F)ccc1-c1c(C(=O)N(C)Cc2cc(C(F)(F)F)cc(C(F)(F)F)c2)n(C)c(=O)c2ccccc12 [Example 176, N-[3,5-Bis(trifluoromethyl)benzyl]-4-(4-fluoro-2-methylphenyl)-1,2-dihydro-N,2-dimethyl-1-oxo-3-isoquinolinecarboxamide] | 0.7 nM
17 | Cc1ccccc1-c1c(C(=O)N(C)Cc2ccccc2)n(C)c(=O)c2ccccc12 [Example 103, N-Benzyl-1,2-dihydro-N,2-dimethyl-4-(2-methylphenyl)-1-oxo-3-isoquinolinecarboxamide] | 34 nM
18 | COc1ccccc1-c1c(C(=O)NCc2cc(C(F)(F)F)cc(C(F)(F)F)c2)n(C)c(=O)c2ccccc12 [Example 158, N-[3,5-Bis(trifluoromethyl)benzyl]-1,2-dihydro-4-(2-methoxyphenyl)-2-methyl-1-oxo-3-isoquinolinecarboxamide] | 78 nM
19 | CNc1nc2ccccc2c(-c2ccccc2)c1C(=O)N(C)Cc1cc(C(F)(F)F)cc(C(F)(F)F)c1 [Example 271, N-[3,5-Bis(trifluoromethyl)benzyl]-N-methyl-2-methylamino-4-phenyl-3-quinolinecarboxamide] | 1.9 nM
20 | Cc1ccc(CNC(=O)c2c(-c3ccccc3)c3cc(C)c(C)cc3c(=O)n2C)cc1 [Example 127, 1,2-Dihydro-2,6,7-trimethyl-N-(4-methylbenzyl)-1-oxo-4-phenyl-3-isoquinolinecarboxamide] | 8.8 nM
21 | CN(Cc1cc(C(F)(F)F)cc(C(F)(F)F)c1)C(=O)[C@H]1[C@H](c2ccc(F)cc2)c2ccccc2C(=O)N1C (relative stereo) [Example 280, 3,4-trans-N-[3,5-Bis(trifluoromethyl)benzyl]-4-(4-fluorophenyl)-1,2,3,4-tetrahydro-N,2-dimethyl-1-oxo-3-isoquinolinecarboxamide] | 58 nM
22 | CCOC(=O)CCn1c(C(=O)N(C)Cc2cc(C(F)(F)F)cc(C(F)(F)F)c2)c(-c2ccccc2)c2ccccc2c1=O [Example 180, N-[3,5-Bis(trifluoromethyl)benzyl]-2-(2-ethoxycarbonylethyl)-1,2-dihydro-N-methyl-1-oxo-4-phenyl-3-isoquinolinecarboxamide] | 9.1 nM
23 | Cc1ccccc1-c1c(C(=O)N(C)Cc2cc(C(F)(F)F)cc(C(F)(F)F)c2)c(=O)oc2ccccc12 [Example 254, N-[3,5-Bis(trifluoromethyl)benzyl]-N-methyl-4-(2-methylphenyl)-2-oxo-2H-1-benzopyran-3-carboxamide] | 0.36 nM
24 | Cc1cccc(C)c1-c1c(C(=O)N(C)Cc2cc(C(F)(F)F)cc(C(F)(F)F)c2)n(C)c(=O)c2ccccc12 [Example 123, N-[3,5-Bis(trifluoromethyl)benzyl]-1,2-dihydro-4-(2,6-dimethylphenyl)-N,2-dimethyl-1-oxo-3-isoquinolinecarboxamide] | 46 nM
25 | CN(Cc1cc(C(F)(F)F)cc(C(F)(F)F)c1)C(=O)c1c(-c2ccccc2C(F)(F)F)c2ccccc2oc1=O [Example 256, N-[3,5-Bis(trifluoromethyl)benzyl]-N-methyl-2-oxo-4-(2trifluoromethylphenyl)-2H-1-benzopyran-3-carboxamide] | 4.4 nM
26 | CN(Cc1cc(C(F)(F)F)cc(C(F)(F)F)c1)C(=O)c1c(-c2ccccc2)c2ccccc2oc1=O [Example 250, N-[3,5-Bis(trifluoromethyl)benzyl]-N-methyl-2-oxo-4-phenyl-2H-1-benzopyran-3-carboxamide] | 0.9 nM
27 | Cc1cc(C)cc(COCc2c(-c3ccccc3)c3cc(C)c(C)cc3c(=O)n2C)c1 [Example 208, 1,2-Dihydro-2,6,7-trimethyl-1-oxo-4-phenyl-3-isoquinolinemethyl 3,5-dimethylbenzyl ether] | 140 nM
28 | CN(Cc1cc(C(F)(F)F)cc(C(F)(F)F)c1)C(=O)c1c(-c2ccccc2)c2ccccc2n(C)c1=O [Example 260, N-[3,5-Bis(trifluoromethyl)benzyl]-1,2-dihydro-N,1-dimethyl-2-oxo-4-phenyl-3-quinolinecarboxamide] | 1 nM
29 | Cc1cc2c(-c3ccccc3)c(C(=O)NCc3cccc(Cl)c3)n(C)c(=O)c2cc1C [Example 130, N-(3-Chlorobenzyl)-1,2-dihydro-2,6,7-trimethyl-1-oxo-4-phenyl-3-isoquinolinecarboxamide] | 38 nM
